For one compound, Ki results are on record in BindingDB's records for doi:10.1021/jm049651m (Uppsala University, 2004).

Bridge positions count the residues as written; N and C are the ends. Square brackets hold non-standard residues; d marks the D form. Peptide text beside a SMILES is read from it. hCys = N[C@@H](CCS)C(=O)O

This assay has as its target Type-2 angiotensin II receptor (Sus scrofa). Nature of the assay: Displacement of [125I]-Ang II from pig uterus myometrium angiotensin II type 2 (AT2) receptor.

With `NC(N)=NCCC[C@H](NC(=O)[C@@H](N)CC(=O)O)C(=O)N[C@H]1CCSSCC[C@@H](C(=O)N[C@@H](Cc2c[nH]cn2)C(=O)N2CCC[C@H]2C(=O)N[C@@H](Cc2ccccc2)C(=O)O)NC(=O)[C@H](Cc2ccc(O)cc2)NC1=O` [c[Hcy3,5]Ang II] (H-DR[hCys]Y[hCys]HPF-OH; disulfide 3-5), the affinity, expressed as Ki, was 2.1 nM.
